In one assay the test system is diploidem Roggen Chulpan. Kind of assay: Field test of gametocidal activity, diploid rye Chulpan. The note with it: for Prozentsatz des Ansetzens von Samen bei freier Bestäubung: control = 100. The class given is in vivo.
Assay [1] relates to Winterweizens Sorte Mironowskaya 808. Put plainly: Field test of gametocidal activity (anther sterilisation), winter wheat Mironowskaya 808. It counts as in vivo, Weizen. The conditions noted are these: for Prozentsatz des Ansetzens von Samen bei freier Bestäubung: control = 100; for pest or weed control at 1 %, 10000 g/ha: read-out: Prozentsatz der Sterilität %.
Assay [2] concerns Sommerweizens Sorte Moskowskaya 35. Put plainly: Field test of gametocidal activity, spring wheat Moskowskaya 35. It counts as in vivo, Weizen. The note with it: for Prozentsatz des Ansetzens von Samen bei freier Bestäubung: control = 100.
In assay [3] the test system is Hirse Sorte Mironovskoye 94. Put plainly: Field test of gametocidal activity, millet Mironovskoye 94. It counts as in vivo. The conditions noted are these: for Prozentsatz des Ansetzens von Samen bei freier Bestäubung: control = 100. The text has this:
(§1) Die gametozide Aktivität der erfindungsgemäßen Sterilisationsmittel war in Feldversuchen in verschiedenen bodenklimatischen Zonen mit Teilstücken von 10 m^2 Größe in dreibis viermaliger Wiederholung festgestellt. Jedes Sterilisationsmittel wurde mindenstens 5 Jahre lang geprüft.
(§2) Die Entwicklung der Perioden der Organogenese wird zytologisch überwacht. Die Behandlung von Pflanzen mit dem Sterilisationsmittel erfolgt am Anfang der fünften Periode der Organogenese nach Kupermann.
(§3) Mit dem Ährenschieben verwirklicht man die Isolierung von Hauptähren und anderen Stockwerken in Pergametbeuteln. Bei Weizen und Tritikale werden Einzelisolatoren benutzt. Bei Roggen schließt man je 1 Ähre von […] verschiedenen nebeneinander befindlichen Pflanzen unter einen gemeinsamen Isolator ein. Bei Hirse wird jede Rispe getrennt isoliert. Der Sterilitätsprozentsatz (X) für Weizen, Roggen, Tritikale und Hirse wird nach der Formel [formula] ermittelt.
(§4) Die Kornzahl in nicht isolierten Ähren von Kontrollpflanzen wird bedingt für 100 % Ansetzen bei freier Bestäubung angenommen.
(§5) Um zuverlässige Angaben zu erhalten, verwendet man 20 bis 25 Isolatoren je Wiederholung für Weizen und Tritikale, 10 bis 15 Isolatoren jeder Wiederholung für Roggen und Hirse.
Pflanzen der Hirse Sorte Mironovskoye 94 werden in der V.Periode der Organogenese mit einer 1%igen wäßrigen Emulsion von 1,1,3-Tribrompropan, 1,2,3-Tribrompropan, 1,2-Dibrompropan, 1,2-Dibrom-3-chlorpropan, 1,3-Dibrompropan, 1,1,1,3-Tetrabromheptan, 1,1,3-Tribromheptan, 1,2-Dibromheptan behandelt. Die Emulsion enthält 0,5 Masse% C12-C14--Kalziumalkylbenzolaulfonat und 0,01 Masse% Dimethylsulfoxid als Adjuvans. Der Verbrauch an Präparat beträgt 6 kg/ha bei 600 1 Wasserdurchsatz. Die Prüfergebnisse sind in der Tabelle 15 angegeben. Die gleichen Ergebnisse sind bei der Behandlung der Hirse Sorte Mironovskoye 94 in der VI. Periode der Organogenese erhalten.

For assay [4], the system named is diploidem Roggen Kharkovskaya 55. Kind of assay: Field test of gametocidal activity, diploid rye Kharkovskaya 55. It counts as in vivo. The conditions noted are these: for Prozentsatz des Ansetzens von Samen bei freier Bestäubung: control = 100.
Description: as §1, §2, §3, §4, §5
Pflanzen von diploidem Roggen Kharkovskaya 55 werden in der V. Periode der Organogenese mit einer l%igen wäßrigen Emulsion von 1,1,3-Tribrompropan, 1,2,3-Tribrompropan, 1,2-Dibrompropan, 1,1,3-Tribrom-3-chlorpropan, 1,2--Dibrom-3-chlorpropan, 1,1,1,3-Tetrabromheptan, 1,1,3-Tribromheptan bzw. 1,2-Dibromheptan behandelt. Die Emulsion enthält 0,5 Masse% C12-C14-Kalziumalkylbenzolsulfonat und 0,01 Masse% Dimethylformamid als Adjuvans. Der Verbrauch an Präparat beträgt 6 kg/ha bei 600 1 Wasserdurchsatz. Die Prüfergebnisse sind in der Tabelle 13 angegeben. Die gleichen Ergebnisse sind bei der Behandlung von diploidem Roggen Kharkovskaya 55 in der VI. Periode der Organogenese erhalten.

Setting [5] is: Chulpan, period V, 1% aqueous emulsion, 10 kg/ha.
Where [6] appears, read: read-out: Prozentsatz der Sterilität.
The mark [7] stands for this setting: Mironowskaya 808, period V of organogenesis, 1% aqueous emulsion, 10 kg/ha.
Setting [8] is: Moskowskaya 35, period V, 1% aqueous emulsion, 6 kg/ha in 600 l water.
Where [9] appears, read: Mironovskoye 94, period V, 1% aqueous emulsion, 6 kg/ha in 600 l water.
[10] abbreviates: Kharkovskaya 55, period V, 1% aqueous emulsion, 6 kg/ha in 600 l water.

Consider three compounds from patent publication EP0358766A1, “METHOD OF STERILIZING PLANT ANTHERS” (VSESOJUZNY NAUCHNO-ISSLEDOVATELSKY INST. SELSKOKHOZYAISTV. …, priority 1988, dated 1989).

Molecules are shown by their SMILES. Read-outs that look alike come from different tables or passages of the source.

`ClCC(Br)CBr` (stereo not drawn) [Beispiel 7, 1,2-Dibrom-3-chlorpropan]: the “Kornzahl der Ähre bei freier Bestäubung” value is recorded as 42,5 with diploidem Roggen Chulpan (setting [5]), 33,8 in assay [1] (setting [7]), 33,8 in assay [2] (setting [8]) and 39,5 in assay [4] (setting [10]). The “Kornzahl der Ähre im Isolator” value (in the assay on diploidem Roggen Chulpan (setting [5]); in assay [1] (setting [7]); in assay [2] (setting [8]); in assay [4] (setting [10])) was 0,0 throughout. Moreover, the “Prozentsatz des Ansetzens von Samen bei freier Bestäubung” value in the assay with diploidem Roggen Chulpan (setting [5]) is given as 84,8%; in assay [1] (setting [7]), 90,6%; in assay [2] (setting [8]), 88,5%; in assay [3] (setting [9]), 82,8%; in assay [4] (setting [10]) it was 87,6%. Besides, the pest or weed control at 10000 g/ha in the assay with diploidem Roggen Chulpan (setting [6]) came to 100%. Also, the pest or weed control at 1 %, 10000 g/ha in assay [1] was found to be 100%. For the same compound, the pest or weed control at 6000 g/ha in assay [2] (setting [6]), in assay [3] (setting [6]) and in assay [4] (setting [6]) was 100% throughout. Moreover, the “Kornzahl der Rispe bei freier Bestäubung” value in assay [3] (setting [9]) is 202,6. Besides, the “Kornzahl der Rispe im Isolator” value in assay [3] (setting [9]) is given as 0,0.

For `CCCCC(Br)CC(Br)(Br)Br` (stereo not drawn) [Beispiel 9, 1,1,1,3-Tetrabromheptan], the “Kornzahl der Ähre bei freier Bestäubung” value is 48,9 in the assay on diploidem Roggen Chulpan (setting [5]), 31,4 in assay [1] (setting [7]), 35,8 in assay [2] (setting [8]) and 37,1 in assay [4] (setting [10]). Further, the “Kornzahl der Ähre im Isolator” value with diploidem Roggen Chulpan (setting [5]) was 0,2; in assay [1] (setting [7]), 0,2; in assay [2] (setting [8]) it was 0,1; in assay [4] (setting [10]) it was 0,0. Besides, the “Prozentsatz des Ansetzens von Samen bei freier Bestäubung” value in the assay on diploidem Roggen Chulpan (setting [5]) is given as 97,6%; in assay [1] (setting [7]) it was 75,5%; in assay [2] (setting [8]) it was 93,7%; in assay [3] (setting [9]), 81,7%; in assay [4] (setting [10]), 100,0%. The pest or weed control at 10000 g/ha in the assay on diploidem Roggen Chulpan (setting [6]) stood at 99.6%. Besides, in assay [1], the pest or weed control at 1 %, 10000 g/ha was determined as 99.5%. Further, the pest or weed control at 6000 g/ha is 99.9% in assay [2] (setting [6]), 100% in assay [3] (setting [6]) and 100% in assay [4] (setting [6]). For the same compound, in assay [3] (setting [9]), the “Kornzahl der Rispe bei freier Bestäubung” value is 200,7. The “Kornzahl der Rispe im Isolator” value in assay [3] (setting [9]) is listed as 0,0.

On to `CCCCC(Br)CC(Br)Br` (stereo not drawn) [Beispiel 10, 1,1,3-Tribromheptan], for which the “Kornzahl der Ähre bei freier Bestäubung” value with diploidem Roggen Chulpan (setting [5]) is recorded as 46,3; in assay [1] (setting [7]) it was 40,0; in assay [2] (setting [8]), 36,2; in assay [4] (setting [10]), 36,2. Also, the “Kornzahl der Ähre im Isolator” value in the assay with diploidem Roggen Chulpan (setting [5]) is 0,3; in assay [1] (setting [7]), 0,6; in assay [2] (setting [8]), 0,1; in assay [4] (setting [10]) it was 0,1. The “Prozentsatz des Ansetzens von Samen bei freier Bestäubung” value with diploidem Roggen Chulpan (setting [5]) is 92,4%; in assay [1] (setting [7]), 96,2%; in assay [2] (setting [8]), 94,7%; in assay [3] (setting [9]) it was 73,6%; in assay [4] (setting [10]), 97,8%. The percent sterility at 10000 g/ha in the assay on diploidem Roggen Chulpan (Chulpan, period V, 1% aqueous emulsion, 10 kg/ha, read-out: Prozentsatz der Sterilität) is 99.4%. For the same compound, in assay [1] (setting [7]), the pest or weed control at 1 %, 10000 g/ha is 98.4%. Also, the percent sterility at 6000 g/ha in assay [2] (Moskowskaya 35, period V, 1% aqueous emulsion, 6 kg/ha in 600 l water, read-out: Prozentsatz der Sterilität) was 99.8%; in assay [3] (Mironovskoye 94, period V, 1% aqueous emulsion, 6 kg/ha in 600 l water, read-out: Prozentsatz der Sterilität) it was 100%; in assay [4] (Kharkovskaya 55, period V, 1% aqueous emulsion, 6 kg/ha in 600 l water, read-out: Prozentsatz der Sterilität), 99.8%. Also, the “Kornzahl der Rispe bei freier Bestäubung” value in assay [3] (setting [9]) is 180,1. Further, the “Kornzahl der Rispe im Isolator” value in assay [3] (setting [9]) is 0,0.
